Experiments:
4T1 cells [1] = test: Vaccination study with irradiated hESC + adjuvants + VPA on 4T1 mice model; assay type: in vivo; conditions: for Percentage of tumor reduction (% of reduction): day 26, compared to control group receiving only PBS, irradiated hESC vaccine + named adjuvant, VPA 4 mg/ml in drinking water, 4T1 in mammary fat pad
Description: FIG. 1: Vaccination study with hESC combined with Valproic acid (VPA), Poly(A:U), ODN 2395 or Quil-A® adjuvant on 4T1 mice model. Vaccination study with hESC combined with Valproic acid (VPA), Poly(A:U), ODN 2395 or Quil-A® adjuvant on 4T1 mice model. Blab/c mice two boosts of vaccine containing 3 different adjuvants the day of tumor challenge. Tumor growth was assessed until 26 days to follow the tumor size using calipers permitting to measure both the longitudinal (a, mm) and transverse (b, mm) diameters. Tumor volume was calculated and plotted using calculation formula 1/6Π(a+b/2)3 mm3.
The experiment was carried out as followed: Five mice per group received two boosts of vaccine 7 and 14 days with 2×10^6 irradiated hESCs cells that were mixed with 3 different adjuvants: 500 μg of TLR3, 50 μg of TLR9 agonist or 50 μg/ml of Quil-A® Saponin vaccine adjuvant. After 14 days 5×10^4 4T1 cells were injected into the mammary fat pad of the mice and Valproic acid added in the drinking water at the dose of 4 mg/ml. Five mice receiving no treatment were used as control.
Adjuvants used in the vaccine product: Three different adjuvants were tested: • 1/ A TLR3-based adjuvant: Poly(A:U) (ref #tlrl-pau, InvivoGen) Polyadenylic-polyuridylic acid (poly(A:U)) is a synthetic double stranded RNA molecule that specifically signals through TLR3. Poly(A:U) is known to induce the activation of dendritic cells and T lymphocytes, to promote antigen-specific Th1-immune responses and to boost antibody production. […]

LLC1 [2] = test: MHC class I and II expression on LLC1 by flow cytometry; assay type: cell-based; conditions: for MHC class 2 expression: LLC1, dose corresponding to IC50; for increase of expression of MHC1 on the cell membrane: LLC1, dose corresponding to IC50, 48 hours, compared to untreated cells
Excerpt: FIG. 3: HDACi up-regulates MHC1 in Lung cancer cell lines. […] MHCI and MHCII expression was quantified by flow cytometry analysis measuring the Relative Fluorescence Intensity (RFI).
(§1) Non-small cell lung cancer (NSCLC) cell line (lewis lung carcinoma, LLC) expressing a particularly aggressive metastatic phenotype was used.

HDACs = conditions: cited from earlier work
LLC1 [3] = test: MTT cell proliferation assay on LLC1; assay type: cell-based; conditions: Mus musculus
Description: as §1
The half maximal inhibitory concentration (IC50) was first determined for each HDACi using an MTT cell proliferation assay. LLC1 was treated with an increasing dose of HDCAi and proliferation was estimated measuring the absorbance after the incorporation by the cell of MMT (3-(4,5-dimethylthiazol-2-yl)-2,5-diphenyl tetrazolium bromide) substrate.

[4] = system: mammosphere-derived 4T1 cells; test: MHC I expression on 4T1-derived mammospheres by flow cytometry; assay type: cell-based; conditions: 2 mM VPA
Description: (§2) FIG. 2: Valproic acid treatment increases MHC I expression in breast tumor cells. Variation in MHC I expression during VPA treatment at 2 mM on 4T1 adherent cells and on 4T1-derived mammospheres.
(§3) 4T1 cells are a triple negative breast cancer cell line that was incubated with increased doses (0.2 and 2 mM) of valproic acid (VPA). After 4 days of treatment, the MHC I surface marker was quantified by flow cytometry analysis.

4T1 cells [5] = test: Transcriptome analysis of VPA-treated 4T1 cells; assay type: cell-based; conditions: 0.5 mM VPA for 10 days versus non-VPA treated cells
Description: To determine the effect of VPA on 4T1 cells, a transcriptome analysis on cells treated with 0.5 mM of VPA for 10 days was performed and compared with that of non-VPA treated cells. These analyses allowed for the identification of the set of genes implicated in TNF-α signaling and in the response of IFN-α and IFN-γ. In addition, the use of the SAM algorithm allowed for the discrimination of 44 immune-related genes between the VPA-treated samples and their control counterparts, which were validated by principal component analysis (p-value=3.3×10^−4). […] These three molecules are known to contribute to the clonal expansion, survival, and development of T cells and regulate CD28 co-stimulation to promote Th1 cell responses. Consequently, this HDACi improves the immune response against the cancer cells.

4T1 cells [6] = test: Surface marker expression on 4T1 cells by flow cytometry; assay type: cell-based
Description: as §2, §3

Compound | Percentage of tumor reduction (% of reduction) (4T1 cells [1]) | MHC class 2 expression (LLC1 [2]) | increase of expression of MHC1 on the cell membrane (LLC1 [2]) | IC50 (LLC1 [3]) | further results
Polyadenylic-polyuridylic acid [Poly(A:U)] | 54% |  |  |  | reduction of breast tumor volume (4T1 cells [1]; hESC vaccine + adjuvant, versus TLR9 agonist or Quil-A, p<0.001): highest reduction of breast tumor volume
O=C(CCCCCCC(=O)Nc1ccccc1)NO [Vorinostat, N-Hydroxy-N′-phenyloctanediamide] |  | not modulated | 2 fold |  | 
2-pyrrolidinone-n-butyric acid [PBA] |  |  |  |  | Ki (HDACs; major carboxylic acid metabolite of levetiracetam in humans, read-out: Ki for HDAC inhibition): 2250 µM
Nc1ccccc1NC(=O)c1ccc(CNC(=O)OCc2cccnc2)cc1 [Entinostat] |  | not modulated | 2 fold | 2 to 4 µM | 
CC[C@@H](C(N)=O)N1CCCC1=O [Levetiracetam] |  | not modulated | 2 fold | 2 to 4 µM | direct effect on HDACs (HDACs): no direct effect on HDACs
CCCC(CCC)C(=O)O [VPA, acid-2-propylpentanoic] | 24% | not modulated | 2 fold | ~2000 µM | increase of MHC I expression (Relative Fluorescence Intensity) [4]: 2.7 fold; MHC1 overexpression versus non-treated LLC1 cells (LLC1 [2]; LLC1, FIG. 3A): 10 folds; fold change of CD74, CCL2 and TNFRSF9 expression (4T1 cells [5]): greater than 2; MHC I levels (4T1 cells [6]; 0.2 and 2 mM, 4 days of treatment): increasing MHC I levels in a dose-dependent manner; increase in PDL1 expression (4T1 cells [6]; 4T1 cells, 2 mM VPA): 2.1 fold; increase of MHC I expression (Relative Fluorescence Intensity) (4T1 cells [6]; 4T1 cells, 2 mM VPA): 2.1 fold; PDL2 expression (4T1 cells [6]; 4T1 cells, after VPA treatment): only weakly upregulated

— patent publication US12599662B2, “Methods and compositions for treating cancers” (INSERM (INSTITUT NATIONAL DE LA SANTÉ ET DE LA RECHERCHE …, priority 2018, dated 2026)
